Patent publication US20140161722A1, “USE OF PYRIMIDINE DERIVATIVES FOR THE TREATMENT OF EGFR DEPENDENT DISEASES OR DISEASES THAT HAVE ACQUIRED RESISTANCE TO AGENTS THAT TARGET EGFR FAMILY MEMBERS” (priority 2008, published 2014)

Test system: EGFR inhibitor resistant NSCLC cell line NCI-H1975
Assay: in vivo antitumor activity against s.c. NCI-H1975 tumors in athymic mice
Description: Female Harlan athymic mice (n=6), bearing s.c NCI-H1975 tumors are treated p.o. with the PI3K inhibitor Compound A at 50 mg/kg every day for the duration of the treatment. * p<0.05 (Dunnet's vs controls).
Non small cell lung carcinoma cell lines with EGFR mutant forms, but refractory to EGFR inhibition therapy, are valuable models to test the sensitivity of PI3K inhibitors like the compounds of formula I in such genetic background. The NCI-H1975 cell line is such a model as is highly tumorigenic in vivo. Moreover, it contains HER1 bearing the T790M gatekeeper mutation that renders the kinase resistant to catalytic inhibition by compounds such as gefitinib. The in vivo antitumor activity of PI3K inhibitors like the compounds of formula I is tested against this EGFR driven and EGFR tyrosine kinase inhibitor resistant tumor model (FIG. 1).

In the case of `Nc1cc(C(F)(F)F)c(-c2cc(N3CCOCC3)nc(N3CCOCC3)n2)cn1` [Compound A, 5-(2,6-di-morpholin-4-yl-pyrimidin-4-yl)-4-trifluoromethyl-pyridin-2-ylamine], the “antitumor activity (tumor growth)” value (female Harlan athymic mice, s.c. NCI-H1975 tumors (HER1 T790M), 50 mg/kg p.o. every day, p<0.05 Dunnet's vs controls (FIG. 1)) is reported as “in vivo tumor growth inhibition”, the “mean body weight, control vs treatment group” value (mice bearing s.c. NCI-H1975 tumors, 50 mg/kg p.o. every day (FIG. 2)) is reported as “no statistically significant difference in body weight” and the tolerability (mouse, in vivo, 50 mg/kg) is reported as “well tolerated”.
